Experimental data reported in ChEMBL document CHEMBL1157539, “Thousands of chemical starting points for antimalarial lead identification” (Nature, 2010).

System: Plasmodium falciparum
Assay: GSK_TCMDC: Inhibition of Plasmodium falciparum 3D7 in whole erythrocytes, using parasite LDH activity as an index of growth.
Assay type: functional, organism-based

Row | Structure (SMILES) | XC50 (Plasmodium falciparum, 3D7) [µM] | XC50 [µM]
1 | CN(C)CCNc1ncnc2c1[nH]c1ccc(Br)cc12 | 0.742 | –
2 | Cc1cc2[nH]c(-c3ccc(C(=O)NCCCN4CCN(c5cccc(Cl)c5)CC4)s3)nc2cc1Cl | 0.653 | –
3 | COc1cc(CNC[C@@H](O)[C@H](Cc2ccccc2)NC(=O)c2cc(OC(C)C)cc(N3CCCCS3(=O)=O)c2)cc(OC)c1 | 0.59 | –
4 | COc1ccc(C2C(C(=O)Nc3ccc4c(c3)OCO4)c3cc(OC)c(OC)cc3C(=O)N2C)cc1 (centres undefined) | 1.04 | –
5 | O=C(NC1CCN(Cc2ccccc2)CC1)c1ccc(CNC2CCN(Cc3ccccc3)CC2)cc1 | 0.872 | –
6 | COc1cc2c(Nc3ccc(NC(=O)c4ccccc4)cc3)ncnc2cc1OCCCN1CCOCC1 | 0.648 | –
7 | CC(=O)c1cccc2c(NC(=O)Nc3ccc4nccc(N5CCN(C)CC5)c4c3)cccc12 | 0.4 | –
8 | c1ccc2c(CNc3nc(NCC4CCCCC4)nc4[nH]cnc34)cccc2c1 | 0.888 | –
9 | CC(C)Oc1cc2c(cc1NS(=O)(=O)c1ccc(-c3ccc(Cl)cc3)cc1F)CCN(C)CC2 | 0.919 | –
10 | CCC[C@@H]([C@@H](Cc1ccc(C)s1)C(=O)N[C@@H](CNC(C)=O)C(=O)Nc1nccs1)N(O)C=O | 0.176 | –
11 | Cc1nc(N)nc(N)c1CCCOc1ccccc1Br | 0.424 | –
12 | Cc1nc(Nc2ccc(C)c(Cl)c2)c2c(C)noc2n1 | 0.886 | –
13 | COCCNCc1cccc(-c2cccc(CNC3CCN(Cc4ccccc4)CC3)c2)c1 | 0.283 | –
14 | COc1ccc2c(N/N=C/c3ccccc3[N+](=O)[O-])cc(C)nc2c1 | 0.716 | –
15 | CC(C)NC[C@@H](O)[C@H](Cc1ccccc1)NC(=O)c1cc2c3c(c1)c(C(C)C)cn3CCS(=O)(=O)N2C | 0.179 | –
16 | Cc1ccc(NC(=O)c2cccc(CN3CCCN(Cc4cccc(O)c4)CC3)c2)cc1 | 1.31 | –
17 | Cc1cc([N+](=O)[O-])ccc1NC(=O)Nc1cccc(C(F)(F)F)c1 | 0.721 | –
18 | CCNc1cc(C(=O)N[C@@H](Cc2ccccc2)[C@H](O)CNC(CC)c2cccc(Cl)c2)cc(N2CCCCS2(=O)=O)c1 (some centres undefined) | 0.0517 | –
19 | Cc1cccc2nc(-c3ccc(-c4ccc(CNCc5ccc(CN)cc5)cc4)s3)[nH]c12 | 0.442 | –
20 | Cc1ccc(F)cc1S(=O)(=O)Nc1cccc(CCN2CCC(N3CCCCC3)CC2)c1 | 1.12 | –
21 | COc1ccc(NC(=O)[C@H](Cc2ccccc2)Nc2cc(C)nc(NCCc3cccnc3)n2)cc1 | 0.76 | –

Row | Structure (SMILES) | XC50 (Plasmodium falciparum, 3D7) [µM] | XC50 [µM]
22 | CN(C)CCNCc1ccc(-c2ccc(-c3nc4cc(F)ccc4[nH]3)cc2)cc1 | 0.474 | –
23 | CCc1ccc(C2CCN(CCCCNC(=O)c3ccc(NC(=O)c4ccc(Cl)cc4)cc3)CC2)cc1 | 0.646 | –
24 | CC(=O)N[C@H](C(=O)Nc1ccc(-c2cccc(-c3nc4cccc(C)c4[nH]3)c2)cc1)C(C)C | 1.09 | –
25 | Cc1ccc(NS(=O)(=O)c2cccs2)cc1-c1cccc(C(=O)Nc2ccc(F)cc2)c1 | 0.653 | –
26 | Cc1cccc2nc(-c3ccc(-c4ccc(NC(=O)Nc5ccc(Cl)cc5)cc4)cc3)[nH]c12 | 0.1 | –
27 | O=C(C=Cc1ccccc1Br)NC1CCC(CN2CCC(c3c[nH]c4ccccc34)CC2)CC1 (centres undefined) | 0.737 | 0.687
28 | Nc1ncc(-c2ccc3nccc(-c4ccncc4)c3c2)cc1S(=O)(=O)N1CCCCC1 | 0.581 | –
29 | CC(C)OC(=O)c1ccccc1S(N)(=O)=O | 0.674 | –
30 | Cc1nc2ccc3ccc(CNc4ccc(C(=O)N[C@@H](CCC(=O)O)C(=O)N[C@@H](Cc5cccs5)C(=O)O)c(F)c4)cc3c2c(=O)[nH]1 | 0.787 | –
31 | Cc1[nH]c(C)c(-c2ccc(-c3ccc(OC(F)(F)F)cc3)nc2)c(=O)c1Cl | 0.201 | –
32 | COc1cc2nc(NCc3nc4ccccc4[nH]3)nc(N)c2cc1OC | 0.885 | –
33 | COc1ccc(S(=O)(=O)N2CCCc3ccc(Br)cc32)cc1N1CCN(C(=O)C(Cl)(Cl)Cl)CC1 | 0.809 | –
34 | O=C1c2ccc([N+](=O)[O-])cc2C(=O)N1c1ccc2[nH]ncc2c1 | 1.15 | –
35 | COc1cccc(CC(=O)N2CCC(n3c(C)nc4ccc(F)cc43)CC2)c1 | 0.906 | –
36 | CCOC(=O)c1ccc(NCc2ccccn2)cc1 | 0.626 | –
37 | COc1cccc2cc(C(=O)N[C@@H](CC(C)C)C(=O)NC3CC[C@@H](C)N(C(=O)Nc4ccncc4)CC3=O)oc12 (some centres undefined) | 0.292 | –
38 | COc1ccc(Oc2ccccc2CNCC2CCN(CC3CCCCC3)CC2)cc1 | 0.904 | –
39 | O=C(/C=C/c1ccc(Cl)c(Cl)c1)N1CCC(CN2CCC(c3c[nH]c4cc(C(F)(F)F)ccc34)CC2)CC1 | 0.796 | –
40 | COc1ccc(-n2cc(CNCCCn3ccnc3)c(-c3cccc(F)c3)n2)cc1 | 1.06 | –
41 | O=C(Cc1ccc(Nc2nccc(Nc3cccc4[nH]ncc34)n2)cc1)Nc1ccc(C(F)(F)F)cc1 | 0.888 | –
42 | COc1cc2nc(N3CCC(CCCC4CCNCC4)CC3)nc(NCc3ccccn3)c2cc1OC | 0.757 | –

Row | Structure (SMILES) | XC50 (Plasmodium falciparum, 3D7) [µM] | XC50 [µM]
43 | CN1CCC(c2c[nH]c3ccc(NC(=O)Nc4ccc(-c5ccncc5)cc4Cl)cc23)CC1 | 0.836 | –
44 | Cc1cccc2nc(-c3cccc(-c4ccc(NC(=O)CN5CCOCC5)cc4)c3)[nH]c12 | 1.05 | –
45 | CCc1cn(CCCOC)c2ccc(C(=O)N[C@@H](Cc3ccccc3)[C@H](O)CNCc3cccc(C(F)(F)F)c3)cc12 | 0.186 | –
46 | COc1ccc(CNC2CCN(C)CC2)cc1-c1ccc(S(=O)(=O)NCc2ccccc2)s1 | 0.23 | –
47 | CN(C)CCCn1cc(C(=O)OC2CC3CCC(C2)N3C)c2cc(-c3ccccc3)ccc21 (centres undefined) | 0.837 | –
48 | COc1ccc(-n2ccnc2)cc1CNC1CCN(CC2Cn3c(=O)ccc4ccc(F)c2c43)CC1 (centres undefined) | 0.927 | –
49 | Cc1cccc(C)c1CNc1cccc(-c2nc(C)c(C)[nH]2)c1 | 0.883 | –
50 | COc1ccc2ncc(F)c(CCN3CC[C@@H](CNCc4ccc5c(c4C)OCCO5)C3)c2n1 | 1.03 | –
51 | Cc1ccc(Nc2nccc(Nc3ccc4c(c3)nc(Nc3cc(C(C)(C)C)on3)n4C)n2)cc1S(C)(=O)=O | 0.599 | –
52 | O=[N+]([O-])c1ccccc1/C=N/Nc1ccnc2ccc(C(F)(F)F)cc12 | 0.71 | –
53 | Cc1nn(-c2cccc(C(F)(F)F)c2)c2sc(C(=O)NC3CCN(C(C)C)CC3)cc12 | 0.898 | –
54 | COc1cc(F)c2ncc(Cl)c([C@H](O)CN3CCC(NCc4cc5c(cn4)OCCO5)CC3)c2c1 | 0.0952 | –
55 | CCCC(C)NC[C@@H](O)[C@H](Cc1ccccc1)NC(=O)c1cc(NCC)cc(N2CCCCS2(=O)=O)c1 (some centres undefined) | 0.163 | –
56 | CC(C)(C)c1ccc(CNC(=O)/C=C/c2ccc(CNC3CCNCC3)cc2)cc1 | 1.09 | –
57 | CC(CN(C)C)C(=O)Nc1cccc(-c2ccc(-c3nc4cc(F)ccc4[nH]3)cc2)c1 (centres undefined) | 0.653 | –
58 | CC1CCC(NCc2ccc3c(CNC4CCC(C)CC4)c(O)ccc3c2O)CC1 (centres undefined) | 0.116 | –
59 | COc1cccc(-c2nn(C)c3sc(C(=O)NCCN4CCN(c5ccccc5F)CC4)cc23)c1 | 0.955 | –
60 | Cc1cc(F)ccc1Nc1nc(N(C)c2ccccc2)c2cc(OCCN(C)C)ccc2n1 | 0.786 | –
61 | N=C(N)c1ccc(NC(=O)Cc2nc3cc(C(=N)N)ccc3[nH]2)cc1 | 1.38 | –
62 | O=S(=O)(Nc1cccc(CCN2CCC(N3CCCCC3)CC2)c1)c1ccc(-c2ccccc2)cc1 | 1.12 | –
63 | OCC1CCCCN1Cc1cccc(-c2cccc(-c3nc4ccccc4[nH]3)c2)c1 (centres undefined) | 0.779 | –

Row | Structure (SMILES) | XC50 (Plasmodium falciparum, 3D7) [µM] | XC50 [µM]
64 | CCCCNC(=O)[C@H](CC1CCCCC1)NC(=O)c1ccc(O)c(-c2cccc(C(F)(F)F)c2)c1 | 0.773 | –
65 | CC(C)(C)NS(=O)(=O)c1cc(C(=O)N2CCC(CCN3CCC(C(=O)c4ccc(F)cc4)CC3)(c3cccc(F)c3)CC2)c(Cl)cc1F | 0.746 | –
66 | COc1ccc(C(=O)N2CCC(C(=O)NC(C)c3ccc(-n4ccnc4)cc3)CC2)c2ccccc12 (centres undefined) | 1.13 | –
67 | Cc1cc(N/N=C/c2cccc([N+](=O)[O-])c2)c2cc(F)ccc2n1 | 0.595 | –
68 | CCOc1c(CNCCCNc2nc3ccccc3[nH]2)cc(Br)cc1OC | 0.557 | –
69 | CCN(Cc1ccccc1)CC(O)c1ccc(Cl)c(Cl)c1 (centres undefined) | 0.182 | –
70 | CC(C)c1ccc(N2CCN(CCCCNC(=O)c3ccc(NC(=O)c4cc(Cl)cc(Cl)c4)cc3)CC2)cc1 | 0.155 | –
71 | COc1ccc(CCN2CC[C@H](Nc3nc(-c4ccc(F)c(F)c4)nc4ccccc34)C2)cc1S(N)(=O)=O | 0.789 | –
72 | COc1ccc(-c2cnc3[nH]cc(-c4ccc(C(=O)O)cc4)c3c2)cn1 | 0.541 | –
73 | O=C(/C=C/c1ccc(Cl)c(Cl)c1)NCCCCCN1CCC(C(=O)Nc2ccc(Cl)cc2)CC1 | 0.776 | –
74 | Cc1cccc2nc(-c3ccc(-c4ccc(NC(=O)NCc5cccc(F)c5)cc4)s3)[nH]c12 | 0.887 | –
75 | CNc1ccc(CNCc2ccc(-c3ccc(-c4nc5cc(F)ccc5[nH]4)cc3)cc2)cc1 | 0.21 | –
76 | COc1cccc(NC(=O)Nc2ccc(Nc3nc(C)cc(N4CCCC4)n3)cc2)c1 | 0.198 | –
77 | COc1ccc2[nH]ccc(=NN=Cc3ccccc3F)c2c1 | 0.62 | –
78 | O=C(Nc1cccc(N2CCC(NCc3cccnc3)CC2)c1)c1cccc(C(F)(F)F)c1 | 0.97 | –
79 | CS(=O)(=O)c1ccc(CNCc2cccc(-c3ccc(-c4nc5cc(C(F)(F)F)ccc5[nH]4)cc3)c2)cc1 | 0.513 | –
80 | COc1ccc(S(=O)(=O)N(c2cc(Br)cc3c2OCC3)S(=O)(=O)c2ccc(OC)c(N3CCN(C)CC3)c2)cc1N1CCN(C)CC1 | 1.17 | –
81 | CN1CCCc2ccc(NC(=O)Nc3ccc(Cl)c(Cl)c3)cc2C1 | 0.603 | –
82 | O=C(c1ccc(-c2ccc(-c3nc4cc(C(F)(F)F)ccc4[nH]3)s2)cc1)N1CCCCC1CN1CCC(O)C1 (centres undefined) | 0.56 | –
83 | CCOc1ccc(C2CCN(CCCCNC(=O)c3ccc(NC(=O)c4ccc(Cl)cc4)cc3)CC2)c(CC)c1 | 0.786 | –
